Test results reported in US20260184675A1, “CHIRAL ISOMERIC SULFITE COMPOUND AND APPLICATION THEREOF” (Chengdu Hanova BioSciences Co., Ltd, priority 2024, published 2026).

What was measured:
[1] = test system: pest eggs of Tetranychus cinnabarinus; experiment: Effect on hatching of pest eggs of Tetranychus cinnabarinus, leaf disc method; assay type: in vivo; conditions: for Hatching rate (%): 7 days after insecticide delivery; for inhibitory effect on the hatching of pest eggs of Tetranychus cinnabarinus (in words): 1 ppm
Description: • (1) Preparation of leaf discs containing eggs: 20 female adult mites of Tetranychus cinnabarinus were transferred onto leaf discs of Vicia faba with a diameter of 2.0 cm (with wetted filter paper at the bottom), then covered it with a lidded culture dish and cultivated under moisturizing conditions, the adult mites were removed within 36 hours and microscopic examination and counting were performed on leaf discs containing eggs. • (2) Investigation of egg population base: Before pesticide soaking, a microscopic examination was conducted on the egg basic number of each leaf disc, with 2 replicates set for each treatment. • (3) Pesticide soaking treatment: The leaf butterflies loaded with mite eggs were soaked in clear water and sulfite compounds for 10 seconds, respectively, then taken out and cultivated under moisturizing conditions. Each treatment should be repeated for no less than 3 times. • (4) Cultivation and observation: The […] were cultivated under normal conditions. Five days after insecticide delivery, the hatching status of mite eggs was investigated. • Note: The temperature and humidity conditions of the constant temperature and humidity incubator after the treatment should be controlled so as to avoid excessive temperature differences, which may cause generation and dripping of condensate water in the culture dish, resulting in abnormal death of eggs due to soaking in water; it is also necessary to ensure sufficient strong ambient light, without directing irradiating the leaves. • (5) Survey of Results: The experimental materials of each treatment group were regularly hydrated and moisturized, and the hatching of eggs was observed. On the 7th day after insecticide delivery, the number of hatched eggs for each treatment was recorded, and the survey of results was recorded in the original notebook. According to the experimental requirements and characteristics of agents, the survey time can be shortened or extended. • 1) Surveying and recording the number of hatched eggs for each treatment. • 2) Photographing and recording whether there was any pesticide damage to the leaf discs of Vicia faba. • 3) Recording the developmental status of experimental mite eggs, behavior status of nymph mites, including abnormal phenomena such as delayed or stopped development of mite eggs, difficulty in breaking hull for nymph mites, or painful struggles after hatching, etc. • (6) Calculation method: Based on the survey data, the prevention and control effect of each treatment was calculated according to the following formula, and the calculation results were kept to two decimal places. [formula] [formula] [table]

[2] = test system: eggs of Spodoptera litura; experiment: Effect on hatching of eggs of Spodoptera litura, egg piece soaking; assay type: in vivo; conditions: 500 ppm; for Hatching rate (%), Replicate 1 / Hatching rate (%), Replicate 2 / Hatching rate (%), Replicate 3 / Number of unhatched larvae 4 days after insecticide delivery, Replicate 1 / Number of unhatched larvae 4 days after insecticide delivery, Replicate 2 / Number of unhatched larvae 4 days after insecticide delivery, Replicate 3: Spodoptera litura eggs; for Hatching rate (%), Replicate 1 / Hatching rate (%), Replicate 2 / Hatching rate (%), Replicate 3: 4 days after delivery; for Number of unhatched larvae 4 days after insecticide delivery, Replicate 1 / Number of unhatched larvae 4 days after insecticide delivery, Replicate 2 / Number of unhatched larvae 4 days after insecticide delivery, Replicate 3: soaked 10 minutes
Description: • (1) Preparation of paper containing eggs: the egg mass was cut into small pieces, each containing about 60 eggs, soaked in a preformulated test agent for 10 minutes together with paper for egg raising (concentration of each compound of 500 ppm). After taken out, absorbent paper was used to absorb the excess solution adhered to the paper for egg raising and egg pieces. (2) Cultivation: Each egg piece was separately placed in a glass test tube (5.0 cm in height, 2.5 cm in diameter, the same below), which was sealed with plastic paper punctured with fine holes using insect needles and cultivated in an artificial climate chamber at a temperature of (24±1° C.), a relative humidity of (80±10) %, and a photoperiod of L:D=12:12. When the eggs developed until they were about to hatch, castor leaves with a diameter of about 3 cm were added for feeding the hatching larvae; • (3) Observation: the number of hatched and unhatched eggs per egg piece was checked and recorded, and the hatching rate of eggs was calculated according to the formula. Each treatment was repeated for 3 times. • (4) Survey of results: The experimental materials of each treatment group were regularly hydrated and moisturized, and the hatching of eggs was observed. On the 4th day after insecticide delivery, the number of hatched eggs for each treatment was recorded, and the survey of results was recorded in the original notebook. According to the experimental requirements and characteristics of agents, the survey time can be shortened or extended. • 1) Surveying and recording the number of hatched eggs for each treatment. • 2) Recording the developmental status of experimental eggs of Spodoptera litura, behavior status of nymphs, including abnormal phenomena such as delayed or stopped development of eggs of Spodoptera litura, etc. • (5) Calculation method: Based on the survey data, the prevention and control effect of each treatment was calculated according to the following formula, and the calculation results were kept to two decimal places. [formula] [formula]

Structure (SMILES) | Hatching rate (%) ([1]; 0.25 mg/L, Replicate 1) | Hatching rate (%) ([1]; 0.25 mg/L, Replicate 2) | Number of hatched larvae 7 days after insecticide delivery ([1]; 0.25 mg/L, Replicate 1) | Number of hatched larvae 7 days after insecticide delivery ([1]; 0.25 mg/L, Replicate 2) | Hatching rate (%) ([1]; 0.5 mg/L, Replicate 1) | Hatching rate (%) ([1]; 0.5 mg/L, Replicate 2) | Number of hatched larvae 7 days after insecticide delivery ([1]; 0.5 mg/L, Replicate 1) | Number of hatched larvae 7 days after insecticide delivery ([1]; 0.5 mg/L, Replicate 2) | Hatching rate (%) ([1]; 1 mg/L, Replicate 1) | Hatching rate (%) ([1]; 1 mg/L, Replicate 2) | Number of hatched larvae 7 days after insecticide delivery ([1]; 1 mg/L, Replicate 1) | Number of hatched larvae 7 days after insecticide delivery ([1]; 1 mg/L, Replicate 2) | Hatching rate (%), Replicate 1 [2] | Hatching rate (%), Replicate 2 [2] | Hatching rate (%), Replicate 3 [2] | Number of unhatched larvae 4 days after insecticide delivery, Replicate 1 [2] | Number of unhatched larvae 4 days after insecticide delivery, Replicate 2 [2] | Number of unhatched larvae 4 days after insecticide delivery, Replicate 3 [2] | inhibitory effect on the hatching of pest eggs of Tetranychus cinnabarinus (in words) [1] | inhibitory activity on the hatching of eggs of Spodoptera litura (in words) [2] | further results
CC[C@H](COS(=O)OCCF)Oc1ccc(Cl)cc1Cl (stereo partly drawn) [19′-(R,S)] | 70.31% | 71.43% | 19 | 20 | 46.48% | 44.93% | 38 | 38 | 6.00% | 6.45% | 47 | 58 | 51.67% | 50.77% | 50.00% | 30 | 32 | 27 | – | – | –
CC(COc1ccc(Cl)cc1Cl)OS(=O)OCCF [1′-(R,S)] | 54.17% | 29.17% | 22 | 68 | 1.25% | 5.00% | 79 | 76 | 0.00% | 0.00% | 62 | 42 | – | – | – | – | – | – | excellent inhibitory effects | good inhibitory activities | Hatching rate (%), Replicate 1 ([2]; listed as 1′-(R, S)): 28.33%; Hatching rate (%), Replicate 2 ([2]; listed as 1′-(R, S)): 25.00%; Hatching rate (%), Replicate 3 ([2]; listed as 1′-(R, S)): 20.34%; Number of unhatched larvae 4 days after insecticide delivery, Replicate 1 ([2]; listed as 1′-(R, S)): 43; Number of unhatched larvae 4 days after insecticide delivery, Replicate 2 ([2]; listed as 1′-(R, S)): 48; Number of unhatched larvae 4 days after insecticide delivery, Replicate 3 ([2]; listed as 1′-(R, S)): 47
CC(C)(COS(=O)OCCF)Oc1ccc(Cl)cc1Cl (stereo not shown) [S-10′] | 42.11% | 43.77% | 44 | 37 | 7.95% | 6.12% | 81 | 46 | 0.00% | 0.00% | 59 | 84 | 22.03% | 21.88% | 21.67% | 46 | 50 | 47 | excellent inhibitory effects | good inhibitory activities | –
